The values that follow come from the supplement of paper PMC11368000.

For one assay, the system named is 1368 (donor line of iPSC-derived cardiomyocytes). In words: POD (EC05) for decrease in beat frequency (negative chronotrope) vs vehicle; higher = less potent (higher point of departure). The following applies: exposure time: 90 min. As to the method:
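Human iPSC-derived cardiomyocytes from 16 donors were exposed for 90 min at 37 °C to each PFAS at 0.1, 1, 10 and 100 µM in 0.5% DMSO, 384-well plates. Kinetic Ca2+ flux (FLIPR) and Hoechst nuclei counts were normalised to vehicle wells and fitted with a hierarchical Bayesian Hill model to give donor-specific PODs: EC05 for beat-rate increase or decrease and for decay-to-rise ratio increase (QT proxy), EC95 for peak-frequency loss (asystole), EC10 for total cell number loss. 0.03 µM is the lower bound.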
Consider `O=C(O)C(F)(F)C(F)(F)OC(F)(F)F` [Perfluoro-3-methoxypropanoic_acid], for which the POD vs vehicle was over 100 µM.
In turn, `O=C(O)C(F)(F)C(F)(F)C(F)(F)OC(F)(C(F)(F)F)C(F)(F)F` [Perfluoro-4-isopropoxybutanoic_acid] registered a POD vs vehicle of over 100 µM.
Same read-out and setting: the result for `O=S(=O)(O)C(F)(F)C(F)(F)C(F)(F)C(F)(F)F` [Perfluorobutanesulfonic_acid] reads over 100 µM.
With `O=C(O)C(F)(F)C(F)(F)C(F)(F)F` [Perfluorobutanoic_acid], the POD vs vehicle is over 100 µM.
On the same count and under the same terms, the result for `O=C(O)C(F)(F)C(F)(F)C(F)(F)C(F)(F)C(F)(F)C(F)(F)C(F)(F)C(F)(F)C(F)(F)F` [Perfluorodecanoic_acid] reads over 100 µM.
Compound `O=C(O)C(F)(F)C(F)(F)C(F)(F)C(F)(F)C(F)(F)C(F)(F)F` [Perfluoroheptanoic_acid] gave a POD vs vehicle of over 100 µM.
The same measure, in the same setting: the result for `NS(=O)(=O)C(F)(F)C(F)(F)C(F)(F)C(F)(F)C(F)(F)C(F)(F)F` [Perfluorohexanesulfonamide] reads over 100 µM.
The same measure, in the same setting: the result for `O=S(=O)(O)C(F)(F)C(F)(F)C(F)(F)C(F)(F)C(F)(F)C(F)(F)F` [Perfluorohexanesulfonic_acid] reads over 100 µM; that for `O=C(O)C(F)(F)C(F)(F)C(F)(F)C(F)(F)C(F)(F)F` [Perfluorohexanoic_acid], over 100 µM.
The same measure, in the same setting: the result for `O=C(O)C(F)(F)C(F)(F)C(F)(F)C(F)(F)C(F)(F)C(F)(F)C(F)(F)C(F)(F)F` [Perfluorononanoic_acid] reads over 100 µM; that for `O=S(=O)(O)C(F)(F)C(F)(F)C(F)(F)C(F)(F)C(F)(F)C(F)(F)C(F)(F)C(F)(F)F` [Perfluorooctanesulfonic_acid], over 100 µM.
Turning to `O=C(O)C(F)(F)C(F)(F)C(F)(F)C(F)(F)C(F)(F)C(F)(F)C(F)(F)F` [Perfluorooctanoic_acid], the POD vs vehicle is over 100 µM.
Compound `O=C(O)C(F)(F)C(F)(F)C(F)(F)C(F)(F)F` [Perfluoropentanoic_acid] had a POD vs vehicle of over 100 µM.
The compound `O=C(O)C(F)(F)C(F)(F)F` [Perfluoropropanoic_acid] came in with a POD vs vehicle of over 100 µM.
Same read-out and setting: the result for `O=C(O)C(F)(F)C(F)(F)C(F)(F)C(F)(F)C(F)(F)C(F)(F)C(F)(F)C(F)(F)C(F)(F)C(F)(F)F` [Perfluoroundecanoic_acid] reads over 100 µM; that for `O=S(=O)([O-])C(F)(F)C(F)(F)C(F)(F)C(F)(F)F.[K+]` [Potassium_perfluorobutanesulfonate], over 100 µM.

A further assay has as its system 30145 (donor line of iPSC-derived cardiomyocytes). In words: POD (EC05) for increase in Ca2+ transient decay-to-rise ratio (QT prolongation) vs vehicle; higher = less potent (higher point of departure). The following applies: exposure time: 90 min. A digest of the protocol:
(§1)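 Ca2+ flux in human iPSC-derived cardiomyocytes from 16 donors was recorded on a FLIPR Tetra for 100 s before and after a 90 min exposure at 37 °C to 0.1, 1, 10 and 100 µM (final, 0.5% DMSO). Donor-specific points of departure came from hierarchical Bayesian Hill fits to vehicle-normalised beat frequency, decay-to-rise ratio or peak frequency. A 5% change served as threshold, except for peak frequency, where it was a 95% loss.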
Regarding `O=C(O)C(F)(F)C(F)(F)OC(F)(F)F` [Perfluoro-3-methoxypropanoic_acid], the POD vs vehicle is over 100 µM.
Regarding `O=C(O)C(F)(F)C(F)(F)C(F)(F)OC(F)(C(F)(F)F)C(F)(F)F` [Perfluoro-4-isopropoxybutanoic_acid], the POD vs vehicle is over 100 µM.
Consider `O=S(=O)(O)C(F)(F)C(F)(F)C(F)(F)C(F)(F)F` [Perfluorobutanesulfonic_acid], for which the POD vs vehicle was over 100 µM.
Still for that read-out and setting: the result for `O=C(O)C(F)(F)C(F)(F)C(F)(F)F` [Perfluorobutanoic_acid] reads over 100 µM.
`O=C(O)C(F)(F)C(F)(F)C(F)(F)C(F)(F)C(F)(F)C(F)(F)C(F)(F)C(F)(F)C(F)(F)F` [Perfluorodecanoic_acid]: the POD vs vehicle was over 100 µM.
Regarding `O=C(O)C(F)(F)C(F)(F)C(F)(F)C(F)(F)C(F)(F)C(F)(F)F` [Perfluoroheptanoic_acid], the POD vs vehicle was over 100 µM.
On the same count and under the same terms, the result for `NS(=O)(=O)C(F)(F)C(F)(F)C(F)(F)C(F)(F)C(F)(F)C(F)(F)F` [Perfluorohexanesulfonamide] reads over 100 µM.
Take `O=S(=O)(O)C(F)(F)C(F)(F)C(F)(F)C(F)(F)C(F)(F)C(F)(F)F` [Perfluorohexanesulfonic_acid]: the POD vs vehicle is over 100 µM.
The same measure, in the same setting: the result for `O=C(O)C(F)(F)C(F)(F)C(F)(F)C(F)(F)C(F)(F)F` [Perfluorohexanoic_acid] reads over 100 µM; that for `O=C(O)C(F)(F)C(F)(F)C(F)(F)C(F)(F)C(F)(F)C(F)(F)C(F)(F)C(F)(F)F` [Perfluorononanoic_acid], over 100 µM.
On the same count and under the same terms, the result for `O=S(=O)(O)C(F)(F)C(F)(F)C(F)(F)C(F)(F)C(F)(F)C(F)(F)C(F)(F)C(F)(F)F` [Perfluorooctanesulfonic_acid] reads over 100 µM; that for `O=C(O)C(F)(F)C(F)(F)C(F)(F)C(F)(F)C(F)(F)C(F)(F)C(F)(F)F` [Perfluorooctanoic_acid], over 100 µM; that for `O=C(O)C(F)(F)C(F)(F)C(F)(F)C(F)(F)F` [Perfluoropentanoic_acid], over 100 µM.
With `O=C(O)C(F)(F)C(F)(F)F` [Perfluoropropanoic_acid], the POD vs vehicle is over 100 µM.
The same measure, in the same setting: the result for `O=C(O)C(F)(F)C(F)(F)C(F)(F)C(F)(F)C(F)(F)C(F)(F)C(F)(F)C(F)(F)C(F)(F)C(F)(F)F` [Perfluoroundecanoic_acid] reads over 100 µM; that for `O=S(=O)([O-])C(F)(F)C(F)(F)C(F)(F)C(F)(F)F.[K+]` [Potassium_perfluorobutanesulfonate], over 100 µM.

A further assay has as its system 20032 (donor line of iPSC-derived cardiomyocytes). The assay is described as above. Conditions: exposure time: 90 min. A digest of the protocol:
as §1
As to `O=C(O)C(F)(F)C(F)(F)OC(F)(F)F` [Perfluoro-3-methoxypropanoic_acid], the POD vs vehicle is over 100 µM.
Regarding `O=C(O)C(F)(F)C(F)(F)C(F)(F)OC(F)(C(F)(F)F)C(F)(F)F` [Perfluoro-4-isopropoxybutanoic_acid], the POD vs vehicle was over 100 µM.
The same measure, in the same setting: the result for `O=S(=O)(O)C(F)(F)C(F)(F)C(F)(F)C(F)(F)F` [Perfluorobutanesulfonic_acid] reads over 100 µM; that for `O=C(O)C(F)(F)C(F)(F)C(F)(F)F` [Perfluorobutanoic_acid], over 100 µM; that for `O=C(O)C(F)(F)C(F)(F)C(F)(F)C(F)(F)C(F)(F)C(F)(F)C(F)(F)C(F)(F)C(F)(F)F` [Perfluorodecanoic_acid], over 100 µM.
Still for that read-out and setting: the result for `O=C(O)C(F)(F)C(F)(F)C(F)(F)C(F)(F)C(F)(F)C(F)(F)F` [Perfluoroheptanoic_acid] reads over 100 µM; that for `NS(=O)(=O)C(F)(F)C(F)(F)C(F)(F)C(F)(F)C(F)(F)C(F)(F)F` [Perfluorohexanesulfonamide], over 100 µM.
Take `O=S(=O)(O)C(F)(F)C(F)(F)C(F)(F)C(F)(F)C(F)(F)C(F)(F)F` [Perfluorohexanesulfonic_acid]: the POD vs vehicle is over 100 µM.
